# Experimental data: PMC10817917, “Alkyl deoxyglycoside-polymyxin combinations against critical priority carbapenem-resistant gram-negative bacteria” (Scientific Reports, 2024)
# Where two headings read alike, the source gives them in different places.
# Legend:
# [1] = system: E. cloacae CQ1941; assay: Broth microdilution MIC/MBC, glycosides with or without polymyxins; format: cell-based; conditions: for MIC: Enterobacter cloacae, CQ1941
# [2] = system: K. pneumoniae CQ1942; assay: Broth microdilution MIC, glycosides with or without polymyxins; format: cell-based, Klebsiella pneumoniae; conditions: for MIC: Klebsiella pneumoniae, CQ1942
# [3] = system: K. pneumoniae CQ4921; assay: Broth microdilution MIC/MBC, glycosides with or without polymyxins; format: cell-based, Klebsiella pneumoniae; conditions: for MIC: Klebsiella pneumoniae, CQ4921
# [4] = system: K. pneumoniae CQ1947; assay: Broth microdilution MIC, glycosides with or without polymyxins; format: cell-based, Klebsiella pneumoniae; conditions: for MIC: Klebsiella pneumoniae, CQ1947
# [5] = alone, read-out: MICA (MIC of each compound individually)
# [6] = combination with the lowest FICI
# [7] = compound + colistin, lowest FICI
structure (smiles),measurement,setting,value
"CCCCCCCCCCCC[C@H]1O[C@H](C)C[C@H](O)[C@H]1O [Compound 5, 1-(4,6-dideoxy-α-D-xylo-hexopyranosyl)dodecane]",MIC of colistin in combination with the compound,"[1]; Cpd conc. 0.4 μg/mL, strain D",0.5 µg/mL
same,MIC of colistin in combination with the compound,"[1]; Cpd conc. 0.8 μg/mL, strain D",0.5 µg/mL
same,MIC of colistin in combination with the compound,"[1]; Cpd conc. 3.125 μg/mL, strain D",0.125 µg/mL
same,MIC of colistin in combination with the compound,"[1]; Cpd conc. 6.25 μg/mL, strain D",0.125 µg/mL
same,MIC of colistin in combination with the compound,"[1]; Cpd conc. 12.5 μg/mL, strain D",0.125 µg/mL
same,MIC of colistin in combination with the compound,"[1]; Cpd conc. […], strain D",0.5 µg/mL
same,MIC,"[1]; agent alone, no adjuvant (polymyxin conc. 0), strain D, read-out: MIC",> 100 µg/mL
same,MIC,[1]; [5],> 100 µg/mL
same,MIC of compound in combination with PMB,"[1]; PMB 0.25 μg/mL, strain D",> 100 µg/mL
same,MIC of compound in combination with PMB,"[1]; PMB 0.5 μg/mL, strain D",1.6 µg/mL
same,MIC of compound in combination with colistin,"[1]; colistin 0.06 μg/mL, strain D",> 100 µg/mL
same,MBC of compound in combination with colistin,"[1]; colistin 0.125 μg/mL, strain D",6.3 µg/mL
same,MIC of compound in combination with colistin,"[1]; colistin 0.125 μg/mL, strain D",3.1 µg/mL
same,MIC of compound in combination with colistin,"[1]; colistin 0.25 μg/mL, strain D",3.1 µg/mL
same,MIC of compound in combination with colistin,"[1]; colistin 0.5 μg/mL, strain D",≤ 0.1 µg/mL
same,MICA(A + B) (MIC of compound in combination with colistin),[1]; [6],3.125 µg/mL
same,MICB(A + B) (MIC of colistin in combination with compound),[1]; [6],0.125 µg/mL
same,FICI,[1]; [7],0.27
same,MIC of colistin in combination with the compound,"[2]; Cpd conc. 0.4 μg/mL, strain E",0.5 µg/mL
same,MIC of colistin in combination with the compound,"[2]; Cpd conc. 0.8 μg/mL, strain E",0.5 µg/mL
same,MIC of colistin in combination with the compound,"[2]; Cpd conc. 3.125 μg/mL, strain E",0.25 µg/mL
same,MIC of colistin in combination with the compound,"[2]; Cpd conc. 6.25 μg/mL, strain E",0.25 µg/mL
same,MIC of colistin in combination with the compound,"[2]; Cpd conc. 12.5 μg/mL, strain E",0.25 µg/mL
same,MIC of colistin in combination with the compound,"[2]; Cpd conc. […], strain E",0.5 µg/mL
same,MIC,"[2]; agent alone, no adjuvant (polymyxin conc. 0), strain E, read-out: MIC",> 100 µg/mL
same,MIC,[2]; [5],> 100 µg/mL
same,MIC of compound in combination with PMB,"[2]; PMB 0.25 μg/mL, strain E",> 100 µg/mL
same,MIC of compound in combination with PMB,"[2]; PMB 0.5 μg/mL, strain E",1.6 µg/mL
same,MIC of compound in combination with colistin,"[2]; colistin 0.06 μg/mL, strain E",> 100 µg/mL
same,MIC of compound in combination with colistin,"[2]; colistin 0.125 μg/mL, strain E",> 100 µg/mL
same,MIC of compound in combination with colistin,"[2]; colistin 0.5 μg/mL, strain E",≤ 0.1 µg/mL
same,MICA(A + B) (MIC of compound in combination with colistin),[2]; [6],3.125 µg/mL
same,MICB(A + B) (MIC of colistin in combination with compound),[2]; [6],0.25 µg/mL
same,Interpretation (of FICI),[2]; compound + colistin,Additive (from 0.5 to 1.0 were additive)
same,FICI,[2]; [7],0.52
same,MIC of colistin in combination with the compound,"[3]; Cpd conc. 0.4 μg/mL, strain C",0.5 µg/mL
same,MIC of colistin in combination with the compound,"[3]; Cpd conc. 0.8 μg/mL, strain C",0.5 µg/mL
same,MIC of colistin in combination with the compound,"[3]; Cpd conc. 3.125 μg/mL, strain C",0.125 µg/mL
same,MIC of colistin in combination with the compound,"[3]; Cpd conc. 6.25 μg/mL, strain C",0.125 µg/mL
same,MIC of colistin in combination with the compound,"[3]; Cpd conc. 12.5 μg/mL, strain C",0.125 µg/mL
same,MIC of colistin in combination with the compound,"[3]; Cpd conc. […], strain C",0.5 µg/mL
same,MIC,"[3]; agent alone, no adjuvant (polymyxin conc. 0), strain C, read-out: MIC",> 100 µg/mL
same,MIC,[3]; [5],> 100 µg/mL
same,MIC of compound in combination with PMB,"[3]; PMB 0.25 μg/mL, strain C",> 100 µg/mL
same,MIC of compound in combination with PMB,"[3]; PMB 0.5 μg/mL, strain C",1.6 µg/mL
same,MIC of compound in combination with colistin,"[3]; colistin 0.06 μg/mL, strain C",> 100 µg/mL
same,MBC of compound in combination with colistin,"[3]; colistin 0.125 μg/mL, strain C",6.3 µg/mL
same,MIC of compound in combination with colistin,"[3]; colistin 0.125 μg/mL, strain C",3.1 µg/mL
same,MIC of compound in combination with colistin,"[3]; colistin 0.5 μg/mL, strain C",≤ 0.1 µg/mL
same,MICA(A + B) (MIC of compound in combination with colistin),[3]; [6],3.125 µg/mL
same,MICB(A + B) (MIC of colistin in combination with compound),[3]; [6],0.125 µg/mL
same,Interpretation (of FICI),[3]; compound + colistin,Synergy (Values ≤ 0.5 were considered synergistic)
same,FICI,[3]; [7],0.27
same,MIC of colistin in combination with the compound,"[4]; Cpd conc. 0.4 μg/mL, strain F",0.5 µg/mL
same,MIC of colistin in combination with the compound,"[4]; Cpd conc. 0.8 μg/mL, strain F",0.5 µg/mL
same,MIC of colistin in combination with the compound,"[4]; Cpd conc. 3.125 μg/mL, strain F",0.25 µg/mL
same,MIC of colistin in combination with the compound,"[4]; Cpd conc. 6.25 μg/mL, strain F",0.25 µg/mL
same,MIC of colistin in combination with the compound,"[4]; Cpd conc. 12.5 μg/mL, strain F",0.25 µg/mL
same,MIC of colistin in combination with the compound,"[4]; Cpd conc. […], strain F",0.5 µg/mL
same,MIC,"[4]; agent alone, no adjuvant (polymyxin conc. 0), strain F, read-out: MIC",> 100 µg/mL
same,MIC,[4]; [5],> 100 µg/mL
same,MIC of compound in combination with PMB,"[4]; PMB 0.25 μg/mL, strain F",> 100 µg/mL
same,MIC of compound in combination with PMB,"[4]; PMB 0.5 μg/mL, strain F",3.1 µg/mL
same,MIC of compound in combination with colistin,"[4]; colistin 0.06 μg/mL, strain F",> 100 µg/mL
same,MIC of compound in combination with colistin,"[4]; colistin 0.125 μg/mL, strain F",> 100 µg/mL
same,MIC of compound in combination with colistin,"[4]; colistin 0.5 μg/mL, strain F",0.2 µg/mL
same,MICA(A + B) (MIC of compound in combination with colistin),[4]; [6],3.125 µg/mL
same,MICB(A + B) (MIC of colistin in combination with compound),[4]; [6],0.25 µg/mL
same,Interpretation (of FICI),[4]; compound + colistin,Additive (from 0.5 to 1.0 were additive)
same,FICI,[4]; [7],0.52
